Literature values, collected in patent US20040006103A1, “Use of chloroquine, hydroxychloroquine and 4 amino-quinolinic derivatives to obtain a drug for the anti retroviral therapy, active towards HIV sensitive strains and towards HIV strains which are resistant to both nucleosidic and non-nucleosidic reverse transcriptase inhibitors and to proteases …” (VALPHARMA S.A., priority 2002, published 2004).

Legend:
HIV-1 [1] = settings: 800 mg/day, 8 weeks, Sperber et al. (1995), cited from earlier work
[2] = plasmatic concentrations 7 to 15 microM, prolonged over 18-24 months; Lange (1994); cited from earlier work
HIV [3] = settings: 800 mg/day, compared to placebo; Sperber et al. 1997; cited from earlier work
HIV [4] = settings: in vitro, cited from earlier work
HIV-1 [5] = settings: association hydroxychloroquine (400 mg/day) plus HU plus ddI, 48 weeks, Paton et al. 2002, cited from earlier work
HIV [6] = settings: cited from earlier work
HIV-1 [7] = settings: Sperber (1993), cited from earlier work
HIV [8] = settings: continuous cultures of cells from the lymphocyte system; Tsai (1990); cited from earlier work

Compound	quantity of HIV-RNA (HIV-1 [1]; asymptomatic HIV-1 positive patients)	negative events (HIV-1 [1])	retinopathy [2]	plasmatic HIV-RNA (HIV [3])	effect on inhibition of the HIV replication when added to ddI plus HU (HIV [4]; Boelaert et al. (1999))	effect when added to the association AZT plus HU (HIV [4]; Boelaert et al. (2001))	decrement of plasmatic HIV-RNA (HIV-1 [5]; 22 patients) [logs]	tolerability (HIV-1 [5])	negative events (HIV [6]; 16 weeks, hydroxychloroquine 800 mg/day, AZT 500 mg/day)	patients with an increase of plasmatic viremia (HIV [6]; at the 8th and at the 16th week)	production of infecting viral particles (HIV-1 [7]; CEM cells used as target)	inhibition of HIV-1 replication (HIV-1 [7]; PBMC, U-937, CEM) [%]	toxic effect in cell cultures (HIV-1 [7]; concentration suitable for inhibit viral replication)	inhibition of the HIV replicative cycle (HIV [8])
CCN(CCO)CCCC(C)Nc1ccnc2cc(Cl)ccc12 (centres unmarked) [HCQ, hydroxychloroquine]	significantly decreased	No negative event was observed	rarely induced retinopathy	significant reduction	extra effect	additional effect	1.3	well tolerated	no negative events were observed	nobody	almost completely inhibits	> 75	no toxic effect was found	
CCN(CC)CCCC(C)Nc1ccnc2cc(Cl)ccc12 (centres unmarked) [CQ, chloroquine]														inhibits the HIV replicative cycle
